“And” between values parts separate entries of the source, which are not always exact repeats. Equal entries are not always repeated.
Columns and labels:
[1] = Ames test for potential genotoxicity
[2] = Estimated EC99 used for PK/PD (parasite not stated); conditions: free blood level threshold
From the text: Given promising in vivo efficacy data in mice (Table 1), compound 1 was progressed into cattle pharmacokinetic studies, dosing both IV and IM (Table 2, Figure S2, and Table S4). […] This low bioavailability was likely a consequence of poor compound release from the injection site following IM administration in cattle due to the low solubility of compound 1, probably leading to compound accumulation and precipitation at the injection site.

[3] = Mouse liver microsome stability; type: in vitro ADME; conditions: intrinsic clearance
Method: solubility method,5 the long shaking times appear to give solubility values that more closely reflect those made from solid samples (unpublished in-house data).
2.2 Microsomal stability studies
(a) Mouse liver microsome stability. These methods have been previously reported.6
(b) Bovine liver microsome stability. Test compounds (0.5 µM) were incubated with 0.5 mg/mL bovine liver microsomes (Xenotech LLC TM) in 50 mM potassium phosphate buffer, pH7.4 and the reaction initiated upon addition of excess NADPH (8 mg/mL in 50 mM potassium phosphate buffer, pH7.4).
Aliquots (50 µL) of the incubation mixture were taken at time zero, 3, 6, 9, 15 and 30 min then mixed with acetonitrile (100 µL) to stop the reaction. An internal standard was added to all samples, prior to centrifugation (10 min, 1,665 g, RT) to sediment precipitated protein. Reaction plates were then sealed prior to UPLCMSMS analysis using a Quattro Premier XE (Waters corporation, USA).
XLfit (IDBS, UK) was used to calculate the exponential decay and consequently the rate constant (k) from the ratio of peak area of test compound to internal standard at each timepoint. The rate of intrinsic clearance (CLi) of each test compound was then calculated using the following […]
CLi(mL/min/g liver) = k x V x microsomal protein yield […]

[4] = Comparative cattle PK, IM compared to SC (NorthWest Biopharm); type: in vivo; conditions: Aberdeen Angus crossbreed and Limousin crossbreed, bovine, blood, 5 mg/kg free base
Method: Kolliphor EL, N-methyl pyrrolidone, 2-pyrrolidone and 11% water suitable for injection) […]
Comparative cattle PK (Northwestern Biopharm)
The pharmacokinetics for compound 2 when dosed as free base in the best tolerated formulation: […]
Kolliphor EL, N-methyl pyrrolidone, 2-pyrrolidone and 11% water at 5 mg/kg was assessed, IM
compared to SC. Bioanalysis of blood
samples was conducted at the University of Dundee. […]

T. congolense = assay: Cattle efficacy for compound 2, intramuscular (CIRDES), T. congolense; type: in vivo, Trypanosoma congolense
Method: Compound 2 was progressed into IM efficacy studies dosing at 10 mg/kg either once or twice, 15 h apart, in cattle infected with T. congolense or T. vivax. […]
3.5 Cattle efficacy for compound 2, intramuscular (CIRDES)
Felani-zebu cattle were housed in a fly-proof facility, acclimatised for 15 d prior to the study, cattle were treated with an anthelmintic, an ectoparasiticide and an antibiotic. Donor animals were infected with stabilates (frozen stocks) of either T. congolense KOT256 (resistant to 7 mg/kg diminazene in cattle) or T. vivax Gando Bongaly (resistant to diminazene 7 mg/kg and to isometamidium 1 mg/kg […]
in cattle). Blood from the donor animals, diluted with phosphate buffered glucose was used to infect recipient animals IV via the jugular vein. Infection was with approximately 100,000 fresh viable parasites. The compounds were given IM. Each injection was up to 10 mL and given in neck in the following order: left anterior third, right anterior third, left posterior third and right posterior third.
Animals over 240 kg required a fifth injection site for the IVP, and this was given in the left or right hind leg. Cattle were randomised to treatments. Parasitaemia was monitored 3 times per calendar week, though collection of blood and assessment of clinical symptoms. Blood samples were also […]
treatment). […]

SMILES | Ames [1] | estimated EC99 [2] | Mouse Microsome Cli [3] | AUC ([4]; IM) | Cmax ([4]; IM) | Tmax ([4]; IM) | AUC ([4]; SC) | Cmax ([4]; SC) | Tmax ([4]; SC) | Cattle cured (T. congolense; 10 mg/kg IM twice, 15 h apart, treatment groups T2 and T4 together) | efficacy (T. congolense; T1, 10 mg/kg IM once, cured/animals, 100 days) | Efficacy, individual animals (T. congolense; T1 single dose IM, animals 1903, 1910, 1913, 1924, 1935, 1936) | efficacy (T. congolense; T2, 10 mg/kg IM twice, 15 h apart, cured/animals) | Efficacy, individual animals (T. congolense; T2 dosed twice IM, animals 1905, 1906, 1909, 1917) | efficacy (T. congolense; T4, saline twice, followed by compound 2 rescue dose twice IM 5 days later) | Efficacy, individual animals (T. congolense; T4 after 2 (two rescue doses IM), animals 1914, 1921, 1923, 1927)
CC(C)CS(=O)(=O)N[C@H]1CC[C@H](Nc2nc(N)c(C(=O)c3c(F)cccc3F)s2)CC1 [Compound 1, N-((trans)-4-((4-Amino-5-(2,6-difluorobenzoyl)thiazol-2-yl)amino)cyclohexyl)-2-methylpropane-1-sulfonamide] | negative | 1.6 ng/mL | 11 mL/min/g |  |  |  |  |  |  |  |  |  |  |  |  | 
CC(C)CS(=O)(=O)N[C@H]1CC[C@H](Nc2nc(N)c(C(=O)c3c(F)cc(CN(C)C)cc3F)s2)CC1 [Compound 2, N-(trans)-[4-[[4-Amino-5-[4-(dimethylaminomethyl)-2,6-difluoro-benzoyl]thiazol-2-yl]amino]cyclohexyl]-2-methyl-propane-1-sulfonamide] |  |  |  | 3170 ng·h/mL | 360 ng/mL | 0.5 h | 967 ng·h/mL | 86 ng/mL | 3 h | three out of the eight | 0/6 | no | 1/4 | no (3×) and yes | 2/4 | no (2×) and yes (2×)

Reference: PMC9014415, “Repositioning of a Diaminothiazole Series Confirmed to Target the Cyclin-Dependent Kinase CRK12 for Use in the Treatment of African Animal Trypanosomiasis” (Journal of Medicinal Chemistry, 2022)
